Measurements from US20180273970A1, “PLASMID, TRANSFORMED PLANT CELL AND TRANSGENIC PLANT COMPRISING THE SAME, AND METHODS FOR PREPARING A TRANSGENIC PLANT AND FOR INCREASING YIELD OF A PLANT UNDER ABIOTIC STRESSES” (Academia Sinica, priority 2014, published 2018).

How the values were obtained:
SKIN-GFP = test: Cellular localization of SKIN-GFP in transfected barley aleurones (confocal microscopy); assay type: cell-based; conditions: −S medium containing ABA, 48 h
Protocol: (§1) FIG. 10. ABA restricts SKINs, SnRK1A and MYBS1 in the cytoplasm under sugar starvation. Barley aleurones were co-transfected with indicated plasmid constructs and incubated in +S or −S medium with ABA (+ABA) or without ABA (−ABA) for 48 h. Thirty optical sections of 0.9-1.1 μm thickness were prepared for each cell and only five regularly spaced sections (sections 3, 9, 15, 21 and 27) are shown here. C and N indicate higher GFP signals, and c and n indicate lower GFP signals in the cytoplasm and nucleus, respectively. For more section images of each cell, see also FIG. 22 online. (A) Barley aleurones were transfected with Ubi:SKIN1-GFP, Ubi:SKIN2-GFP, Ubi:SnRK1A-GFP or Ubi:MYBS1-GFP alone. (B) Barley aleurones were transfected with Ubi.MYBS1-GFP alone (panel 1) or co-transfected with Ubi.MYBS1-GFP and Ubi:SnRK1A (panel 2), or with Ubi.MYBS1-GFP and Ubi:SnRK1A(Ri) (panel 3). (C) Barley aleurones were co-transfected with Ubi:SnRK1A-GFP and Ubi:SKIN(Ri). (D) Wild type rice (WT) or transgenic rice overexpression Ubi:SKIN(Ri) were transfected with Ubi:SnRK1A-GFP (panels 1-3) or Ubi.MYBS1-GFP (panels 4-6).
(§2) Detection of cellular localization of SKIN-GFP, SnRK1A-GFP and MYBS1-GFP fusion proteins were performed as described (Hong et al., 2012). […]

MYBS1-GFP = test: Cellular localization of MYBS1-GFP in transfected barley aleurones (confocal microscopy); assay type: cell-based; conditions: −S medium containing ABA, 48 h
Protocol: as §1, §2

SKIN1 = test: Quantitative RT-PCR of SKIN1 mRNA in leaves of 2-week-old rice seedlings after stress or ABA; assay type: in vivo; conditions: 24 h after 1 μM ABA
Protocol: FIG. 9. The expression of SKIN is induced by various abiotic stresses and ABA, and SKINs promote the ABA sensitivity. (A) Total RNA was purified from leaves of 2-week-old rice seedlings that had been air dried, treated with 200 mM salt, incubated at 4° C., or treated with 1 μM ABA, or from embryos of seedlings grown underwater (hypoxia), for various lengths of time. RNAs were subjected to quantitative RT-PCR analysis using primers specific for SKIN1 and SKIN2. The highest mRNA level was set as 100%. The lowest mRNA level was assigned a value of 1× and mRNA levels of other samples were calculated relative to this value. Error bars indicate the SE for three replicate experiments. (B) Seeds of transgenic lines SKIN1-Ox(O3), SKIN1-Ri(R3), SKIN2-Ox(02) and SKIN2-Ri(R1) were germinated and grown in water containing various concentrations of ABA at 28° C. under a 14-h light/10-h dark cycle for 6 days. Lengths of shoots were measured. Error bars represent SE (n=8) at significance levels: * p<0.1, ** p<0.05. […]
Total RNA was extracted from leaves of rice seedlings with the Trizol reagent (Invitrogen) and treated with RNase-free DNase I (Promega, Madison, Wis.). […] The quantitative variation between different samples was evaluated by the delta-delta CT method, and the amplification of 18S ribosomal RNA was used as an internal control to normalize all data.

rice seedlings = test: Germination and seedling shoot growth in water containing ABA; assay type: in vivo; conditions: ABA 1 to 10 μM, 6 days, 28° C., 14-h light/10-h dark
Protocol: FIG. 9. The expression of SKIN is induced by various abiotic stresses and ABA, and SKINs promote the ABA sensitivity. (A) Total RNA was purified from leaves of 2-week-old rice seedlings that had been air dried, treated with 200 mM salt, incubated at 4° C., or treated with 1 μM ABA, or from embryos of seedlings grown underwater (hypoxia), for various lengths of time. RNAs were subjected to quantitative RT-PCR analysis using primers specific for SKIN1 and SKIN2. The highest mRNA level was set as 100%. The lowest mRNA level was assigned a value of 1× and mRNA levels of other samples were calculated relative to this value. Error bars indicate the SE for three replicate experiments. (B) Seeds of transgenic lines SKIN1-Ox(O3), SKIN1-Ri(R3), SKIN2-Ox(02) and SKIN2-Ri(R1) were germinated and grown in water containing various concentrations of ABA at 28° C. under a 14-h light/10-h dark cycle for 6 days. Lengths of shoots were measured. Error bars represent SE (n=8) at significance levels: * p<0.1, ** p<0.05. For photos of treated seedlings, see also FIG. 20 online.
FIG. 20. Growth of transgenic rice overexpressing SKIN is more sensitive to ABA inhibition. Seeds of transgenic lines SKIN1-Ox(O3), SKIN1-Ri(R3), SKIN2-Ox(02) and SKIN2-Ri(R1) were germinated and grown in water containing various concentrations of ABA for 6 days at 28 C under a 14-h light/10-h dark cycle. […]

CC1=CC(=O)CC(C)(C)[C@@]1(O)/C=C/C(C)=C\C(=O)O [ABA, abscisic acid]
Localization of SKIN-GFP (SKIN-GFP): exclusively localized in the cytoplasm
Localization of MYBS1-GFP (MYBS1-GFP): exclusively localized in the cytoplasm
Induction of SKIN1 mRNA accumulation (SKIN1): ≤ 4.2 fold
Degree of inhibition on growth of wild type and all transgenic lines (rice seedlings): increased with ABA concentrations from 1 to 10 μM
